According to patent US12187723B2 (BRISTOL-MYERS SQUIBB COMPANY, priority 2019, dated 2025):

Assays:
human TLR9 = biological target: T1, human TLR9 (Homo sapiens, UniProt Q9NR96); assay: TLR9 inhibition reporter assay (HEK-Blue SEAP); format: cell-based; details: HEK-Blue cells overexpressing human TLR9, ODN2006 5 nM, 22 hour incubation
T1 construct: host or cells: HEK-Blue cells
T1 sequence (Q9NR96 26-1032): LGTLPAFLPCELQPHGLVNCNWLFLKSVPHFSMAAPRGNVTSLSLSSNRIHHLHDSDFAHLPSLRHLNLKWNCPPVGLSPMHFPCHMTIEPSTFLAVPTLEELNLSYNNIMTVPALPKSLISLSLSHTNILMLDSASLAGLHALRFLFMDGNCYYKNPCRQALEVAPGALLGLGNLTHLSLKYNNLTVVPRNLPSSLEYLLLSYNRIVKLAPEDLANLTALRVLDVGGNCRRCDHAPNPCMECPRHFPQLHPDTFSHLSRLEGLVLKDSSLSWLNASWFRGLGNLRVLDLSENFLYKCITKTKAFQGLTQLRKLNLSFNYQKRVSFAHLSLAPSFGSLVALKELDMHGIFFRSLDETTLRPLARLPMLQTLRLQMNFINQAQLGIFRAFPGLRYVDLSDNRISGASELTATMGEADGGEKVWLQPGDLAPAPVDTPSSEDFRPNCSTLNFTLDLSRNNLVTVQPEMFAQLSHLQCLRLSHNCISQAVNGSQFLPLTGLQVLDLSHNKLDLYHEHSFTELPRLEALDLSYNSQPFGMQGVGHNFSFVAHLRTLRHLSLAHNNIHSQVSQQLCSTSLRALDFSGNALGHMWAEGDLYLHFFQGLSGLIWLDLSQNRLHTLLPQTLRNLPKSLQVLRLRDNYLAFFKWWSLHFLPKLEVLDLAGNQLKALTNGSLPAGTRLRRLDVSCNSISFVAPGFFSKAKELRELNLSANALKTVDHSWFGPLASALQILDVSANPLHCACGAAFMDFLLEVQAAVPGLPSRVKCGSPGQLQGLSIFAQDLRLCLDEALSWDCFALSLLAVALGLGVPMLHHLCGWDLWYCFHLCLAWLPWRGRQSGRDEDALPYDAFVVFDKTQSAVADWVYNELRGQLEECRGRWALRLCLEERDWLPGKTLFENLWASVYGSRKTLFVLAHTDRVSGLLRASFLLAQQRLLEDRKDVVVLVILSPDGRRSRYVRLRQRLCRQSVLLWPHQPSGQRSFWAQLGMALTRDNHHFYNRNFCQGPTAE
Procedure, shortened: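 HEK-Blue cells overexpressing human TLR7, TLR8 or TLR9 carry a SEAP reporter driven by NF-κB/AP-1 sites. Compounds (0.05 nM–50 μM) were preincubated 30 min at room temperature, then cells were stimulated with gardiquimod 7.5 μM (TLR7), R848 15.9 μM (TLR8) or ODN2006 5 nM (TLR9) for 22 h at 37 °C.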

human TLR7 = biological target: T2, human TLR7 (Homo sapiens, UniProt Q9NYK1); assay: TLR7 inhibition reporter assay (HEK-Blue SEAP); format: cell-based; details: HEK-Blue cells overexpressing human TLR7, gardiquimod 7.5 μM, 22 hour incubation
T2 construct: host or cells: HEK-Blue cells
T2 sequence (Q9NYK1 27-1049): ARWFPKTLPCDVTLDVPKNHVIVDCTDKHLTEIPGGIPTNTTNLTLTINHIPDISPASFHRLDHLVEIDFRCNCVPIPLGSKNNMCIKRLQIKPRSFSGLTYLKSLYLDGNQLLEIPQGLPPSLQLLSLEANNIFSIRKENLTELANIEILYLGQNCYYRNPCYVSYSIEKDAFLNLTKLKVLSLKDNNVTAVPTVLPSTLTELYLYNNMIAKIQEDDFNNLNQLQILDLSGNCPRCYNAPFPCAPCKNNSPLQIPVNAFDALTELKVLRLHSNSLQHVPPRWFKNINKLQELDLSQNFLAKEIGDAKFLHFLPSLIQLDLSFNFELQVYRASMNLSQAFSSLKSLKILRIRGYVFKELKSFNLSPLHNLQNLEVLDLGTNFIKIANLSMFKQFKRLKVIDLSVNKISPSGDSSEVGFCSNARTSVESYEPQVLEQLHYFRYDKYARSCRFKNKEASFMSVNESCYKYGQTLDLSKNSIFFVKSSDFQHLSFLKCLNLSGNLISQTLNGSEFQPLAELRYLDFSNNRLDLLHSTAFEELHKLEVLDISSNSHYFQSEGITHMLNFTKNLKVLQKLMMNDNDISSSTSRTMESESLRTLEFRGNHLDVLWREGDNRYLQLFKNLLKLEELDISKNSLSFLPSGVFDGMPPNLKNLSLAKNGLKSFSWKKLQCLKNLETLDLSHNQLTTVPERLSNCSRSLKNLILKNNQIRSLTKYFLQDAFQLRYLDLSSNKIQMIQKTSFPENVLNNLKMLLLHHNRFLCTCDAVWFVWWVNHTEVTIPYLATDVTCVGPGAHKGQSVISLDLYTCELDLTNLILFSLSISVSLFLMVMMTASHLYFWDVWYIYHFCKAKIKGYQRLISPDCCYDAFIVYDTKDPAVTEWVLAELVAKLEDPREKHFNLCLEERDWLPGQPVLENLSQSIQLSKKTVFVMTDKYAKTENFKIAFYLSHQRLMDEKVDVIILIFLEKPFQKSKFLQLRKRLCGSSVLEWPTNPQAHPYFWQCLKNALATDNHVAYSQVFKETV
Procedure, shortened: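 SEAP readout via HEK-Blue Detection medium after 22 h at 37 °C, 5% CO2 defines inhibition, normalized between agonist-plus-DMSO wells and a reference inhibitor. Compound dose range 0.05 nM–50 μM; TLR7 cells at 15,000/well (gardiquimod), TLR8 at 20,000/well (R848).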

SMILES	IC50 (human TLR9) [nM]	IC50 (human TLR7) [nM]
Cc1cc2c(cc1-c1cc(C)c3ncnn3c1)[nH]c(=O)n2[C@H]1CC[C@@H](NCc2ncn(C)n2)CC1 [Example 33, 6-methyl-1-((1s,4s)-4-(((1-methyl-1H-1,2,4-triazol-3-yl)methyl)amino)cyclohexyl)-5-(8-methyl-[1,2,4]triazolo[1,5-a]pyridin-6-yl)-1,3-dihydro-2H-benzo[d]imidazol-2-one]	21100	138
Cc1cc2c(cc1-c1cc(C)c3ncnn3c1)[nH]c(=O)n2[C@@H]1CCCN(Cc2ncn(C)n2)C1 [Example 35, (R)-6-methyl-1-(1-((1-methyl-1H-1,2,4-triazol-3-yl)methyl)piperidin-3-yl)-5-(8-methyl-[1,2,4]triazolo[1,5-a]pyridin-6-yl)-1,3-dihydro-2H-benzo[d]imidazol-2-one]	> 50000	722
COc1ncc(CN2CCC[C@H](n3c(=O)[nH]c4cc(-c5cc(C)c6ncnn6c5)c(C)cc43)C2)cn1 [Example 36, (S)-1-(1-((2-methoxypyrimidin-5-yl)methyl)piperidin-3-yl)-6-methyl-5-(8-methyl-[1,2,4]triazolo[1,5-a]pyridin-6-yl)-1,3-dihydro-2H-benzo[d]imidazol-2-one]	30600	171
Cc1cc2c(cc1-c1cc(C)c3ncnn3c1)[nH]c(=O)n2[C@@H]1CCCN(CC2CC2)C1 [Example 37, (R)-1-(1-(cyclopropylmethyl)piperidin-3-yl)-6-methyl-5-(8-methyl-[1,2,4]triazolo[1,5-a]pyridin-6-yl)-1,3-dihydro-2H-benzo[d]imidazol-2-one]	10100	30.9
Cc1cc2c(cc1-c1cc(C)c3ncnn3c1)[nH]c(=O)n2[C@@H]1CCCN(CCCC(F)(F)F)C1 [Example 39, (R)-6-methyl-5-(8-methyl-[1,2,4]triazolo[1,5-a]pyridin-6-yl)-1-(1-(4,4,4-trifluorobutyl)piperidin-3-yl)-1,3-dihydro-2H-benzo[d]imidazol-2-one]	10600	139
Cc1cc2c(cc1-c1cc(C)c3ncnn3c1)[nH]c(=O)n2[C@@H]1CCCN(CC(C)C)C1 [Example 40, (R)-1-(1-isobutylpiperidin-3-yl)-6-methyl-5-(8-methyl-[1,2,4]triazolo[1,5-a]pyridin-6-yl)-1,3-dihydro-2H-benzo[d]imidazol-2-one]	6470	14.8

These reach a lower IC50 (human TLR9). Values come first.

IC50 (human TLR9) [nM]	IC50 (human TLR7) [nM]	SMILES
278	37.9	COc1cc(-c2cc3[nH]c(=O)n(C4CCN(C)CC4)c3cc2C)cn2ncnc12 [Example 1, 5-(8-methoxy-[1,2,4]triazolo[1,5-a]pyridin-6-yl)-6-methyl-1-(1-methylpiperidin-4-yl)-1,3-dihydro-2H-benzo[d]imidazol-2-one]
5560	68.8	Cc1cc2c(cc1-c1cc(C)c3ncnn3c1)[nH]c(=O)n2C1CCN(C(C)C)CC1 [Example 2, 1-(1-isopropylpiperidin-4-yl)-6-methyl-5-(8-methyl-[1,2,4]triazolo[1,5-a]pyridin-6-yl)-1,3-dihydro-2H-benzo[d]imidazol-2-one]
2340	20.4	Cc1cc2c(cc1-c1cc(C)c3ncnn3c1)[nH]c(=O)n2[C@H]1CC[C@@H](NCC(C)(C)C)CC1 [Example 32, 6-methyl-5-(8-methyl-[1,2,4]triazolo[1,5-a]pyridin-6-yl)-1-((1s,4s)-4-(neopentylamino)cyclohexyl)-1,3-dihydro-2H-benzo[d]imidazol-2-one]
3340	20.5	CCC(C)N[C@H]1CC[C@@H](n2c(=O)[nH]c3cc(-c4cc(C)c5ncnn5c4)c(C)cc32)CC1 (some centres unmarked) [Example 34, 1-((1s,4s)-4-(sec-butylamino)cyclohexyl)-6-methyl-5-(8-methyl-[1,2,4]triazolo[1,5-a]pyridin-6-yl)-1,3-dihydro-2H-benzo[d]imidazol-2-one]
